{"source": "patent US20070191422A1", "about": "(priority 2003, published 2007)", "molecular_target": "α7 nAChR subtype (Rattus norvegicus, UniProt Q05941)", "sequence (Q05941 23-502 limits assumed)": "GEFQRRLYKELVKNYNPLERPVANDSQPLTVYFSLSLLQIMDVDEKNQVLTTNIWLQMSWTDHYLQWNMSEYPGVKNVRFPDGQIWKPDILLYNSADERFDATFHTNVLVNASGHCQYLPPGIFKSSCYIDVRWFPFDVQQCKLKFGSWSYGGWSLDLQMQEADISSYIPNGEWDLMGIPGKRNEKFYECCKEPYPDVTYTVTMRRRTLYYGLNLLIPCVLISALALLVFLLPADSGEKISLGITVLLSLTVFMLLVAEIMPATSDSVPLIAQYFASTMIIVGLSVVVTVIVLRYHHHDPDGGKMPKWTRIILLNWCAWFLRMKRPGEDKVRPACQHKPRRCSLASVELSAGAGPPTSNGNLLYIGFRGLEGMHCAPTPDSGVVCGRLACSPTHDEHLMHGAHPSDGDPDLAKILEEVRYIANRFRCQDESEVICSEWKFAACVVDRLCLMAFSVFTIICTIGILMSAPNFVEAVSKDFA", "assay_type": "binding", "data": [{"substance": "^125I-α—Bungarotoxin [^125I-α-BTX]", "values": [{"measurement": "Kd", "value": 1.67, "unit": "nM"}]}]}
